Assays:
[1] = target: T1, CaV1.2 channel (α1C subunit) (Rattus norvegicus, UniProt P22002); test: whole-cell patch clamp; format: cell-based; conditions: read-out: % of control at 100 nM
[2] = target: T1, CaV1.2 channel (α1C subunit); test: whole-cell patch clamp of ICa1.[…]; format: cell-based; conditions: read-out: % inhibition at 100 μM

| Structure (SMILES) | remaining activity at 0.1 µM [1] [%] | inhibition at 100 µM [2] [%] |
| --- | --- | --- |
| COC(=O)C1=C(C)NC(C)=C([N+](=O)[O-])[C@H]1c1ccccc1C(F)(F)F [Bay K 8644, (S)-(-)-methyl-1,4-dihydro-2,6-dimethyl-3-nitro-4-(2-trifluoromethylphenyl)pyridine-5-carboxylate] | 524 | – |
| O=C(c1ccc(F)cc1)C1CCN(CCn2c(=O)[nH]c3ccccc3c2=O)CC1 [ketanserin, 3-[2-[4-(4-fluorobenzoyl)piperidin-1-yl]ethyl]-1H-quinazoline-2,4-dione] | – | ~50 |

Reference: paper PMC7608335 (Acta Pharmacologica Sinica, 2020)
